Publication PMC9000575, “Solution Equilibrium Studies on Salicylidene Aminoguanidine Schiff Base Metal Complexes: Impact of the Hybridization with L-Proline on Stability, Redox Activity and Cytotoxicity” (Molecules, 2022)
Each block holds one compound with its values, some of them ahead of it.

Tests used:
Type in all cases: physicochemical
[1] = stability constants of Cu(II) complexes by pH-potentiometry; conditions: for logβ [CuLH−1] / logβ [CuLH−2]− / logβ [CuL]+: 25 °C, I = 0.10 M (KCl); for pCu(II) (−log[Cu(II)]): calculated at pH 7.4, cCu(II) = 1 μM, cligand = 10 μM
Experimental: Interaction between Pro-SISC-Me and Cu(II) ions could be studied by pH-potentiometry in water due to the adequate solubility of the species (Figure S7b), and the calculated overall stability constants are collected in Table 2. Based on the titration data, formation of only mono-ligand complexes ([CuL]^+, [CuLH−1], [CuLH−2]^−) was observed even at higher metal-to-ligand ratios. Stability constants for the complexes formed with the more lipophilic SISC were determined in the presence of 30% (v/v) DMSO/H2O (Figure S7a), and for the Cu(II)—Pro-SISC-Me system was studied as well in the same solvent system for comparison (Table 2). […] In the case of SISC, the stability constant could not be obtained for the [CuLH−2]^− species as in its formation pH range (>8) precipitation appeared in the solution. The thiosemicarbazone analogues (STSC and Pro-STSC-Me) also form exclusively mono-ligand complexes ([CuLH]^+, [CuL], [CuLH−1]^−), however, protonated complexes could not be found for SISC and Pro-SISC-Me.
(§1) The pH-potentiometric measurements for the determination of the proton dissociation constants of the ligands and the overall stability constants of the metal complexes were carried out at 25.0 ± 0.1 °C in water or in 30% (v/v) DMSO/H2O as solvent and at an ionic strength of 0.10 M (KCl). The titrations were performed with carbonate-free KOH solution of known concentration (0.10 M). The concentrations of the base and the HCl were determined by pH-potentiometric titrations. An Orion 710A pH-meter equipped with a Metrohm combined electrode (type 6.0234.100), and a Metrohm 665 Dosimat burette were used for the titrations. […] The average water ionization constant pKw was 13.76 ± 0.05 (water) or 14.52 ± 0.05 (30% (v/v) DMSO/H2O). The pH-potentiometric titrations were performed in the pH range 2.0–12.5. The initial volume of the samples was 10.0 mL. The ligand concentration was 2 mM and metal ion-to-ligand ratios of 1:1–1:3 were used. The accepted fitting of the titration curves was always less than 0.01 mL. Argon was always passed over the solutions during the titrations. The exact concentration of the ligand stock solutions together with the proton dissociation constants were determined by pH-potentiometric titrations with the use of the computer program HYPERQUAD [44]. It was also utilized to establish the stoichiometry of the complexes and to calculate the stability constants (β(MpLqHr)). β(MpLqHr) is defined for the general equilibrium pM + qL + rH ⇋ MpLqHr as β(MpLqHr) = [MpLqHr]/[M]^p[L]^q[H]^r, where M denotes the metal ion and L the completely deprotonated ligand. In all calculations exclusively, titration data were used from experiments in which no precipitate was visible in the reaction mixture.

[2] = proton dissociation constants by UV-vis spectrophotometric titration; conditions: for pK2 (H2L+) / pK3 (HL): Pro-SISC-Me; for pK1 (H2L+) / pK2 (HL): SISC
Experimental: An Agilent Cary 8454 diode array spectrophotometer (Agilent Technologies, Santa Clara, CA, USA) was used to record the UV-vis spectra at an interval of 200–800 nm. The path length was 1 or 2 cm. Spectrophotometric titrations were performed in water or in 30% (v/v) DMSO/H2O on samples containing the ligands at 50 μM–1 mM concentration, in the pH range from 1.0 to 12.5 in the absence or in the presence of 1 or 0.5 or 0.33 equiv. metal ions. Ka values of the ligands and the UV-vis spectra of the individual species were calculated by the computer program PSEQUAD [45].

[3] = proton dissociation constants by pH-potentiometry; conditions: for pK1 (H3L2+) / pK2 (H2L+) / pK3 (HL): Pro-SISC-Me; for pK1 (H3L2+) / pK2 (H2L+) / pK3 (HL) / pK1 (H2L+) / pK2 (HL): pH-pot.; for fraction present as H2L+ at pH 7.4 / fraction present as HL at pH 7.4: based on the pKa values; for fraction present as HL at pH 7.4: HL neutral (zwitter ionic for Pro-SISC-Me); for pK1 (H2L+) / pK2 (HL): SISC
Experimental: as §1

[4] = n-octanol/water distribution coefficient, shake-flask; conditions: n-octanol/buffered aqueous solution, pH 7.4; n-octanol/H2O, pH 7.40, 25 °C, 0.10 M KCl; read-out: logD7.4
Experimental: Distribution coefficients (D7.4) values were determined by the traditional shake-flask method in n-octanol/buffered aqueous solution at pH 7.40 (20 mM HEPES, 0.10 M KCl) at 25.0 ± 0.2 °C as described previously.

[5] = cyclic voltammetry of the iron complexes; conditions: for cathodic peak potential of the iron complexes at pH 7.6: pH 7.6, 1:2 metal-to-ligand, E vs. Ag/AgCl/KCl (Figure S13b)
Excerpt: Further differences were observed when the redox behavior of the iron complexes was monitored by cyclic voltammetry. In the case of SISC, only a cathodic peak could be observed in the pH range of the formation of the Fe(III) complexes (not shown), unlike for Pro-SISC-Me (Figure 8b), where quasi-reversible processes could be seen in a wide pH range (3.9–10.8). The cathodic peak measured at pH 7.6 was located at much lower potential than in the case of the SISC complex (−0.59 V vs. −0.38 V, Figure S13b). […] To reveal the coordination mode in the Fe(III)-Pro-SISC-Me complexes, crystallization experiments were performed and single crystals were obtained for the Na[Fe(III)(Pro-SISC-MeH−2)2](H2O)4 complex.
Cyclic voltammograms of the Cu(II) and Fe(III) complexes in 30% (v/v) DMSO/H2O containing 1 mM Cu(NO3)2 or 1 mM or 0.5 mM FeCl3 and 1 mM ligand were recorded at 25.0 ± 0.1 °C. Ionic strength was 0.10 M (TBAN). Measurements were performed on a conventional three-electrode system under nitrogen atmosphere using an Autolab PGSTAT 204 potentiostat/galvanostat monitored by Metrohm’s Nova software (Metrohm Autolab B.V., Utrecht, The Netherlands). Samples were purged with argon for 15 min before recording the cyclic voltammograms. Platinum electrodes were used as the working and auxiliary electrode and Ag/AgCl/3 M KCl as a reference electrode. The electrochemical system was calibrated with an aqueous solution of K3[Fe(CN)6] (E1/2 = +0.386 V vs. NHE).

[6] = stability constants of Fe(II) complexes by pH-potentiometry; conditions: 30% (v/v) DMSO/H2O; for logβ [Fe(II)LH−1] / logβ [Fe(II)LH−2]− / logβ [Fe(II)L]+: 25 °C, I = 0.10 M (KCl), anaerobic; for pFe(II) (−log[Fe(II)]): calculated at pH 7.4, cFe = 1 μM, cligand = 10 μM
Experimental: Complexation with Fe(II) was studied under strictly anaerobic conditions. […] Aside from the better solubility of the Pro-SISC-Me complexes, the two ligands behaved similarly and the difference between their Fe(II)-binding efficacy was minor.
as §1

logβ [CuLH−1] ([1]; 30% DMSO): 6.57 ± 0.05
logβ [CuLH−2]− ([1]; 30% DMSO): −4.42 ± 0.06
logβ [CuL]+ ([1]; 30% DMSO): 15.08 ± 0.02
logβ [CuLH−1] ([1]; H2O): 6.96 ± 0.03
logβ [CuLH−2]− ([1]; H2O): −3.22 ± 0.04
logβ [CuL]+ ([1]; H2O): 14.99 ± 0.02
fraction of [CuL]+ at pH 7.4 ([1]; based on the stability constants): 100%
pCu(II) (−log[Cu(II)]) ([1]; 30% DMSO): 13.39
pCu(II) (−log[Cu(II)]) ([1]; H2O): 13.59
pK2 (H2L+) ([2]; 30% DMSO/H2O): 7.07 ± 0.03
pK3 (HL) ([2]; 30% DMSO/H2O): 9.84 ± 0.03
pK2 (H2L+) ([2]; H2O): 7.30 ± 0.03
pK3 (HL) ([2]; H2O): 9.67 ± 0.03
pK1 (H3L2+) ([3]; 30% DMSO/H2O): 1.80 ± 0.08
pK2 (H2L+) ([3]; 30% DMSO/H2O): 7.08 ± 0.02
pK3 (HL) ([3]; 30% DMSO/H2O): 9.91 ± 0.02
pK1 (H3L2+) ([3]; H2O, 25 °C, I = 0.10 M (KCl)): 2.52 ± 0.08
pK2 (H2L+) ([3]; H2O, 25 °C, I = 0.10 M (KCl)): 7.25 ± 0.06
pK3 (HL) ([3]; H2O, 25 °C, I = 0.10 M (KCl)): 9.61 ± 0.05
fraction present as H2L+ at pH 7.4 [3]: 33%
fraction present as HL at pH 7.4 [3]: 67%
logD [4]: -0.88 ± 0.05
E1/2 of the Fe(III)/Fe(II) redox couple of the iron complexes ([5]; 30% (v/v) DMSO/H2O, 1:2 metal-to-ligand ratio): −0.32 V vs. NHE
cathodic peak potential of the iron complexes at pH 7.6 ([5]; 30% (v/v) DMSO/H2O): −0.59 V
logβ [Fe(II)LH−1] [6]: −1.08 ± 0.05
logβ [Fe(II)LH−2]− [6]: <−11
logβ [Fe(II)L]+ [6]: 6.83 ± 0.04
pFe(II) (−log[Fe(II)]) [6]: 6.1
Structure (SMILES): Cc1cc(C=NNC(=N)N)c(O)c(CN2CCCC2C(=O)O)c1 (stereo not drawn) [Pro-SISC-Me]

logβ [CuLH−1] ([1]; 30% DMSO): 6.28 ± 0.07
logβ [CuL]+ ([1]; 30% DMSO): 14.74 ± 0.02
pCu(II) (−log[Cu(II)]) ([1]; 30% DMSO): 12.08
pK1 (H2L+) ([2]; 30% DMSO/H2O): 7.56 ± 0.03
pK2 (HL) ([2]; 30% DMSO/H2O): 10.67 ± 0.03
pK1 (H2L+) ([2]; H2O): 7.64 ± 0.03
pK2 (HL) ([2]; H2O): 10.12 ± 0.03
pK1 (H2L+) ([3]; 30% DMSO/H2O): 7.62 ± 0.03
pK2 (HL) ([3]; 30% DMSO/H2O): 10.63 ± 0.02
pK1 (H2L+) ([3]; H2O, 25 °C, I = 0.10 M (KCl)): 7.64 ± 0.09
pK2 (HL) ([3]; H2O, 25 °C, I = 0.10 M (KCl)): 9.96 ± 0.09
fraction present as H2L+ at pH 7.4 [3]: 64%
fraction present as HL at pH 7.4 [3]: 36%
logD [4]: 0.83
cathodic peak potential of the iron complex (only a cathodic peak) ([5]; [Fe(III)L2]+ complex): −0.17 V vs. NHE
cathodic peak potential of the iron complexes at pH 7.6 ([5]; 30% (v/v) DMSO/H2O): −0.38 V
logβ [Fe(II)LH−1] [6]: −0.73 ± 0.07
logβ [Fe(II)LH−2]− [6]: −8.94 ± 0.08
logβ [Fe(II)L]+ [6]: 7.20 ± 0.06
pFe(II) (−log[Fe(II)]) [6]: 6.0
Structure (SMILES): N=C(N)NN=Cc1ccccc1O [SISC, 2-(2-hydroxybenzylidene)hydrazinecarboximidamide]
